{"source": "patent EP0954520B1", "about": "“ISOFLAVONE DERIVATIVES, PROCESSES FOR THE PREPARATION THEREOF AND PHARMACEUTICAL COMPOSITIONS CONTAINING THEM” (CHIESI FARMACEUTICI S.p.A., priority 1997, dated 1998)", "key": {"immature rats": {"tested_on": "immature rats", "test": "Uterotrophic and antiuterotrophic actions in immature rat assay (uterine weight)", "type": "in vivo", "settings": "for suppression of estradiol's activity (uterotrophic action): with 17b-estradiol", "protocol": "The uterotrophic and antiuterotrophic actions of CHF 3316.01 were studied to determine the estrogenic and antiestrogenic activity of CHF 3316.01 in immature rat assay. All experiments were conducted using subcutaneous injection of the test compound as a solution in 20% Solutol HS 15. Each experiment was accompained by a vehicle control group and a positive control group (17b-estradiol 2 mg/kg by subcutaneous injection). The test protocol was based on the immature rat assay protocol described by […]. and […] Endocr (1978), 99, 445-464. Animals were dosed on 3 successive days with the appropriate material. Animals were killed by an overdose of CO2 24 hr after the final dose. The body of the uterus was cut just above its junction with the cervix and at the junction of the uterine horns with the ovaries. The uterus was then weighed. Generally, 6 animals per exposure group were employed. The daily dose levels used for CHF 3316.01 were 10 and 20 mg/kg."}, "estrogen receptors": {"target": "T1, estrogen receptors (Bos taurus, UniProt P49884)", "T1 sequence (P49884 1-596)": "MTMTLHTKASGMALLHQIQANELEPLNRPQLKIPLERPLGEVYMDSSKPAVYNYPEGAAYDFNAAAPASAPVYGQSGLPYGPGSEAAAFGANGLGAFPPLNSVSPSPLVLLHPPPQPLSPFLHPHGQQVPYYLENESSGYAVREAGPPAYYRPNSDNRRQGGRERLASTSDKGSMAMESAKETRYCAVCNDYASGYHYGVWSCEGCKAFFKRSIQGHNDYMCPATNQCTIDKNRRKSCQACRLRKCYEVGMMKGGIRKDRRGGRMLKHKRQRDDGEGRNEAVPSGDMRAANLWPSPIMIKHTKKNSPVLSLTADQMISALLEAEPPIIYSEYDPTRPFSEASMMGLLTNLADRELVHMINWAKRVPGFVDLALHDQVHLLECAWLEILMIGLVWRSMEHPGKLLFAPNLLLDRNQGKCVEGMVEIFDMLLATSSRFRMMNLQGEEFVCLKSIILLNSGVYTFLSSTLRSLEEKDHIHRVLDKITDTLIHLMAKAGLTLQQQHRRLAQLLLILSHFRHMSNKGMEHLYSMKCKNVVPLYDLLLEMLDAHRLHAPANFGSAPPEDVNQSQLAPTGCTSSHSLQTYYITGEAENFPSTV", "test": "biochemical", "protocol": "To determine the estrogen receptor binding affinity of CHF 3316.01 calf uterus, prepared as previously described in McGuire W. L. et al. Eds. Estrogen receptors in human breast cancer, Raven Press N. Y., (1975), was used as source of estrogen receptors.\nDisplacement curves were generated using final concentrations of 1.5 nM 17b-[3H]estradiol as radioligand and (1)/(2) [formula] -log unit increments of CHF 3316.01, ranging from 0.1 to 10,000 nM.\nIncubation time was 24 hr at 4°C, after which dextran-treated charcoal was added. The suspension was then centrifuged, and radioactivity in the supernatant fluid was determined by scintillation counting. Percent binding was determined in duplicate at each concentration of displacing ligand.\nIC50 value for 50 % inhibition of 17b-[3H]estradiol binding and Ki value were determined by non linear regression analysis of log concentration-displacement curves."}, "[1]": {"tested_on": "fetal rat long bones (radius and ulna)", "test": "Bone resorption in fetal rat long bone culture (bPTH 1-34 induced 45Ca release)", "settings": "for inhibition of 45Ca release induced by bPTH: bPTH 1-34 5 nM, 5 days culture", "method": "To assess the in vitro activity of the compounds of the invention on bone resorption as a marker of a potential antiosteoporotic effect osteoclastic bone resorption was assayed using fetal rat long bones (radius and ulna) in stationary cultures, where resorption induced by bovine parathyroid hormone fragment 1-34 (bPTH 1-34) was measured by assaying the release from bones of previously incorporated 45Ca (DeLean A et al Am. J. Physiol., (1978), 225, E97-E102).\nOn the following day the animals were sacrificed, the fetuses removed and the radius and ulna aseptically excised and dissected free of surrounding soft tissues.\nThe experiment was terminated by washing the bones in 500 µl distilled water and extracting the residual radioactivity with 500 µl of 10% trichloroacetic acid (TCA).\nbPTH 1-34 and disodium clodronate were dissolved in the culture medium."}, "[2]": {"tested_on": "fetal rat long bones (radius and ulna)", "test": "Bone resorption in fetal rat long bone culture (bPTH 1-34 induced 45Ca release)", "type": "cell-based", "settings": "5 nM, day 5; n=7", "protocol": "Pregnant Sprague-Dawley rats were injected subcutaneously with 0.2 mCi 45Ca (CaCl2, >10 Ci/g) on the 18th day of gestation (day of vaginal plug discovery equals day 0 of pregnancy).\nTo remove freely exchangeable 45Ca, bones were pre-incubated for 24 hours in 48-well polystyrene culture dishes (Costar, Cambridge, MA) containing 500 µl of a culture medium (BGJ-B medium) in an air humidified incubator at 37°C in 5% C02.\nThe medium was changed after 2 days."}}, "data": [{"molecule": "C[C@]12CC[C@@H]3c4ccc(O)cc4CC[C@H]3[C@@H]1CC[C@@H]2O", "note": "[17b-estradiol, reference compound]", "values": [{"measurement": "increase of uterine weight above vehicle control group", "setting": "immature rats; 2 mg/kg subcutaneous, three successive daily injections, immature rats", "result": 93, "unit": "%"}]}, {"molecule": "Cl.O=C(c1ccc(OCCN2CCCCC2)cc1)c1oc2cc(O)ccc2c(=O)c1-c1ccc(O)cc1", "note": "[CHF 3316.01, 4',7-dihydroxy-2-(4-(2-(N-piperidinyl)ethyloxy)benzoyl)isoflavone hydrochloride]", "values": [{"measurement": "Ki", "setting": "estrogen receptors", "result": "3.9 ± 0.3", "unit": "nM"}, {"measurement": "suppression of estradiol's activity (uterotrophic action)", "setting": "immature rats; 10 mg/Kg per day subcutaneous, 3 days", "result": 63, "unit": "%"}, {"measurement": "suppression of estradiol's activity (uterotrophic action)", "setting": "immature rats; 20 mg/Kg per day subcutaneous, 3 days", "result": 78, "unit": "%"}, {"measurement": "uterotrophic activity", "setting": "immature rats; 10 and 20 mg/kg per day subcutaneous, 3 days", "result": "devoid of uterotrophic activity"}, {"measurement": "inhibition of 45Ca release induced by bPTH", "setting": "[1]; 3 mM (so in the source)", "result": "24.81±2.14", "unit": "%"}, {"measurement": "inhibition of 45Ca release induced by bPTH", "setting": "[1]; 10 mM (so in the source)", "result": 37.86, "unit": "%"}, {"measurement": "inhibition of 45Ca release induced by bPTH", "setting": "[1]; 30 mM (so in the source)", "result": "full inhibition"}, {"measurement": "IC50", "setting": "[1]; Rattus norvegicus, read-out: apparent IC50 value", "result": 10000, "unit": "nM"}, {"measurement": "potency relative to M3 (more potent)", "setting": "[1]; versus metabolite 3 of ipriflavone M3", "result": "~2", "unit": "fold"}]}, {"molecule": "bPTH 1-34: bovine parathyroid hormone fragment 1-34, used to induce resorption (AVSEIQFMHNLGKHLSSMERVEWLRKKLQDVHNF; Parathyroid hormone; UniProt P01268 32-65, looked up, fragment)", "values": [{"measurement": "45Ca release, treated over control (T/C) ratio", "setting": "[2]", "result": "4.27±0.33"}]}, {"molecule": "O=c1c(-c2ccc(O)cc2)coc2cc(O)ccc12", "note": "[Example M2, 4',7-dihydroxyisoflavone, reference compound]", "values": [{"measurement": "Ki", "setting": "estrogen receptors", "result": 127, "unit": "nM"}]}, {"molecule": "O=P(O)(O)C(Cl)(Cl)P(=O)(O)O", "note": "[Disodium clodronate, dichloromethylene bisphosphonate, reference compound]", "values": [{"measurement": "inhibition at 5 µM", "setting": "[1]; Rattus norvegicus, 120 h, read-out: inhibition of resorption", "result": "90 ± 5", "unit": "%"}]}]}
